Where only a bound is given, the exact number is not on record here.

Turning to `CS(=O)(=O)CCCCC(c1ccccc1F)S(=O)(=O)c1ccc(Cl)cc1` (stereo not drawn) [Example 53, 1-[1-[(4-Chlorophenyl)sulfonyl]-5-(methylsulfonyl)pentyl]-2-fluorobenzene], the melting point fell in the range of 167 to 168 °C. As for `CC1(C)COC(CCC(c2cc(F)ccc2F)S(=O)(=O)c2ccc(Cl)cc2)OC1` (stereo not drawn) [Example 321, 2-[3-(4-Chlorophenylsulfonyl)-3-(2,5-difluorophenyl)propyl]-5,5-dimethyl-1,3-dioxane], the figure is 69 to 71 °C; as for `O=S(=O)(c1ccc(Cl)cc1)C(CCCCCCO)c1cc(F)ccc1F` (stereo not drawn) [Example 274, 7-[(4-Chlorophenyl)sulfonyl]-7-(2,5-difluorophenyl)-1-heptanol], 77 to 79 °C. As for `O=S(=O)(c1ccc(Cl)cc1)C(CCCCO)(CCCCO)c1cc(F)ccc1F` [Example 19, 5-[(4-Chlorophenyl)sulfonyl]-5-(2,5-difluorophenyl)-1,9-nonanediol], the figure is 107 to 108.5 °C; as for `CC(CCNS(C)(=O)=O)C(c1cc(F)ccc1F)S(=O)(=O)c1ccc(Cl)cc1` (stereo not drawn) [Example 244, N-[4-[(4-Chlorophenyl)sulfonyl]-4-(2,5-difluorophenyl)-3-methylbutyl]methanesulfonamide], 163 °C. To `O=C(CCCC(c1cc(F)ccc1F)S(=O)(=O)c1ccc(Cl)cc1)N1CCCC1` (stereo not drawn) [Example 203, 5-[(4-Chlorophenyl)sulfonyl]-5-(2,5-difluorophenyl)-1-(1-pyrrolildinyl)-1-pentanone] belongs 125 to 126 °C. In turn, `C=COCCOCCC(c1cc(F)ccc1F)S(=O)(=O)c1ccc(Cl)cc1` (stereo not drawn) [Example 34, 2-[1-[(4-Chlorophenyl)sulfonyl]-3-(2-vinyloxyethoxy)propyl]-1,4-difluorobenzene] gave a melting point of 55 to 56 °C. Regarding `COC(=O)CCc1ccc(C(c2cc(F)ccc2F)S(=O)(=O)c2ccc(Cl)cc2)nc1` (stereo not drawn) [Example 333, Methyl 3-[6-[(4-chlorophenylsulfonyl)-(2,5-difluorophenyl)methyl]pyridin-3-yl]propionate], the melting point was 121 to 123 °C. As for `CC(C)(C)OC(=O)NCCCC(c1cc(F)ccc1F)S(=O)(=O)c1ccc(Cl)cc1` (stereo not drawn) [Example 226, t-Butyl N-[4-[(4-chlorophenyl)sulfonyl]-4-(2,5-difluorophenyl)butyl]carbamate], the figure is 119 to 120 °C; as for `O=C(O)CCCCCC(c1cc(F)ccc1F)S(=O)(=O)c1ccc(Cl)cc1` (stereo not drawn) [Example 205, 7-[(4-Chlorophenyl)sulfonyl]-7-(2,5-difluorophenyl)heptanoic Acid], 72 to 76 °C; as for `O=C(CCCCCC(c1cc(F)ccc1F)S(=O)(=O)c1ccc(Cl)cc1)N1CCCC1` (stereo not drawn) [Example 206, 7-[(4-Chlorophenyl)sulfonyl]-7-(2,5-difluorophenyl)-1-(1-pyrrolildinyl)-1-heptanone], 106 °C. In turn, `CC(C)(c1cc(F)ccc1F)S(=O)(=O)c1ccc(Cl)cc1` [Example 232, 2-[1-[(4-Chlorophenyl)sulfonyl]-1-methylethyl]-1,4-difluorobenzene] registered a melting point of 147 to 148 °C.

The compound `CN(C)CC(=O)NCc1ccc(C(c2cc(F)ccc2F)S(=O)(=O)c2ccc(Cl)cc2)nc1` (stereo not drawn) [Example 359, N-[[6-[(4-Chlorophenylsulfonyl)(2,5-difluorophenyl)methyl]pyridin-3-yl]methyl]-2-dimethylaminoacetamide] registered a melting point of 177 to 179 °C. To `O=C(c1ccccc1)C(c1cc(F)ccc1F)S(=O)(=O)c1ccc(Cl)cc1` (stereo not drawn) [Example 8, 2-[(4-Chlorophenyl)sulfonyl]-2-(2,5-difluorophenyl)-1-phenyl-1-ethanone] belongs 179.5 to 180 °C; to `O=C(O)c1ccc(C(c2cc(F)ccc2F)S(=O)(=O)c2ccc(Cl)cc2)nc1` (stereo not drawn) [Example 338, [6-[(4-Chlorophenylsulfonyl)-(2,5-difluorophenyl)methyl]pyridin-3-yl]carboxylic Acid], > 230 °C.

Values taken from patent publication US7399775B2, “β-amyloid protein production/secretion inhibitor” (Daiichi Pharmaceutical Co., Ltd., priority 2001, dated 2008).
